Measurements published in patent US7939530B2, “Treatment of lymphoma using 10-propargyl-10-deazaaminopterin and gemcitabine” (Sloan-Kettering Institute for Cancer Research, priority 2004, dated 2011).

Experiments:
[1] = system: SKI-DLCL-1 lymphoma cells; experiment: Trypan Blue Exclusion cytotoxicity assay of single agents and combinations; assay type: cell-based, human; settings: MTX 10 nM, PDX 1 nM, Ara-C 40 nM, Gem 10 nM, control = 1
Text: As set forth in greater detail in the examples herein, combination therapy using PDX and gemcitabine has been tested in vitro and in in vivo model systems for efficacy against lymphoma. Table 1 sets forth data obtained in a cytotoxicity assay (Example 2) using SKI-DLCL-1 lymphoma cells. SKI-DLCL-1 is a diffuse large b cell lymphoma (DLBCL) cell line that is particularly resistant to PDX.
In Table 1, the additive effect is in each case the % of control for the single agents multiplied together. The expected additive effect for PDX+Gem is better than for MTX and ara-C, because the agents are individually better. What is observed for both MTX/AraC combinations and PDX/Gem combinations is that the actual result is better than the predicted additive result. The extent of this synergism is quantified in Table 1 as (actual-additive)/additive so that the amount of reduction that occurs through the use of the combination is expressed as a percentage of the expected additive benefit.
To evaluate cytotoxicity of combination of PDX and GEM, a Trypan Blue Exclusion Assay was performed by aliquoting 5×10^5 SKI-DLBCL cells into each well of a 24 well plate with a final volume of 1 milliliter. Each drug was added in duplicate to the plate wells as follows: alone (MTX 10 nM, PDX 1 nM, Ara-C 40 nM, or Gem 10 nM), PDX+Gem or MTX+Ara-C for 48 h (hours). For the scheduled administration of drug, PDX or MTX alone were dispensed in additional duplicate wells. After 24 hours Gem and Ara-C were added to these wells, respectively, and incubated for 48 hours. At the end of incubation, 20 l of each cell culture was added to 20 l of trypan blue, after which […] was added to a hemocytometer (Hausser Scientific, Horsham, Pa.), where viable cells were counted based upon the presence (dead cells) or exclusion (live cells) of dye.

[2] = system: HT (Diffuse large B cell) cell line; experiment: Growth inhibition in vitro (XTT or Alamar blue); assay type: cell-based, human; settings: 5 day continuous drug exposure
Protocol: (§1) A PDX preparation prepared in accordance with Example 1 and an MTX preparation were tested for cytotoxicity against a panel of five human lymphoma cell lines. Experiments were performed as described previously. (Sirotnak et al., Cancer Chemother. Pharmacol. 12: 18-25 (1984). In brief, 2.5 to 5×10^3 cells were plated per well in 96-well flat bottom plates. Drug was added in a 0.9% NaCl solution (pH 7.0) over a range of concentrations, and cells were continuously exposed to drug for 5 days. Colorimetric dye (XTT or Alamar blue) was added for an addition period of time (XTT dye, 6 hours, Alamar blue, 24 hours). Each plate was then read on an automated plate reader at 590 nm. The percentage of inhibition was calculated as growth of cells exposed to drug divided by growth of controls (cells incubated with media only). IC50 values were determined as the drug concentrations at which cell growth was inhibited 50% as compared to controls. Experiments were repeated as lest three times. Experiments were also conducted with continuous drug exposures lasting for 3 and 4 days with results similar to the 5 day results.

[3] = system: Raji (Burkitt's) cell line; experiment: Growth inhibition in vitro (XTT or Alamar blue); assay type: cell-based, human; settings: 5 day continuous drug exposure
Protocol: as §1

[4] = system: Hs445 (Hodgkin's disease) cell line; experiment: Growth inhibition in vitro (XTT or Alamar blue); assay type: cell-based, human; settings: 5 day continuous drug exposure
Protocol: as §1

[5] = system: RL (Transformed follicular) cell line; experiment: Growth inhibition in vitro (XTT or Alamar blue); assay type: cell-based, human; settings: 5 day continuous drug exposure
Protocol: as §1

SKI-DLCL-1 cells = experiment: Induction of apoptosis (YO-PRO-1/propidium iodide flow cytometry); assay type: cell-based, human; settings: all drugs 1 nM, total exposure 72 hours, sequential: first drug 24 hours prior to second
Protocol: Ara-C, PDX and Gem in combined and scheduled exposures. In each case, the total exposure time was 72 hours. In sequential treatments, the first drug was administered 24 hours prior to the second drug.
To assess apoptosis occurring as a result of combination therapies, apoptosis was assessed using two well standardized techniques. In the first (YO-PRO), cell membrane permeability was determined by measuring fluorescence of treated and control cells. 2×10^7 SKI-DLBCL cells were treated with either MTX, Ara-C, Gem or PDX alone or combinations of drug given together or scheduled. All drugs were assayed at equimolar concentrations (i.e. 1 nM). The incubation conditions were modeled after the in vitro cytotoxicity experiments. Single agent drugs or combinations of all drugs studied without schedule considerations were incubated for 72 hours, while drugs that were studied in some schedule were introduced in a 24+48 incubation scheme (i.e. drug B added 24 hours following drug A, then incubated for an additional 48 hours for a total incubation time of 72 hours). Cells were then collected, washed twice and re-suspended at a concentration of 1×10^6/mL in DPBS. Membrane permeability was detected via the differential cellular permeability of the fluorescent dyes YO-PRO®-1 and propidium iodide by flow cytometry, as per the manufacturer's guidelines (Vybrant apoptosis kit #4, Molecular Probes, Eugene, Oreg.). In addition to monitoring apoptosis, cell cycle kinetic analyses were also performed on all treated cells based the propidium iodide binding. Apoptotic cells were noted to be permeable to the green fluorescent dye YO-PRO®-1 (em 530, FL-1), and impermeable to the red fluorescent dye propidium iodide (em 575, FL-3). Typically, […] cells allow the entrance of both dyes, whereas living cells are impermeable to both dyes.

[6] = system: subcutaneous tumors of SKI; experiment: Preliminary combination xenograft experiment; assay type: in vivo, irradiated NOD-SCID mice; settings: 60 mg/kg; regrowth by day 44 after initial response
Protocol: Given the experience that SKI-DLCL-1 is the most PDX resistant line in the panel, it was selected for these in vivo synergy experiments. […] All animals were treated with the maximum tolerated dose (MTD) of each drug, save the combination studies.

[7] = cited from earlier work
SKI-DLBCL-1 xenografts = experiment: TUNEL immunohistochemical staining for apoptosis in xenografts; assay type: in vivo, mice; settings: day 21; four doses on days 0, 3, 7 and 10; MTX 40 mg/kg, PDX 60 mg/kg
Protocol: Immunohistochemical staining for apoptosis as measured by terminal deoxynucleotide transferase-mediated nick end-labeling (TUNEL) was performed on SKI-DLBCL-1 xenografts from mice sacrificed at day 21 following initiation of antifolate therapy. Mice received four doses of saline, MTX (40 mg/kg) or PDX (60 mg/kg) on days 0, 3, 7 and 10.

[8] = system: caspase 3 in SKI-DLCL-1 cells; experiment: Caspase 3 activation (EnzChek Caspase-3 Assay Kit #2, Z-DEVD-R110 cleavage); assay type: cell-based, human
Protocol: To further evaluate the activity of PDX and Gem combinations, Caspase activity was tested by EnzChek® Caspase-3 Assay Kit #2 (Molecular Probes) based upon the fluorometric detection of caspase-dependent Z-DEVD-R110 cleavage (rhodamine 110 bis-[N-CBZ-L-aspartyl-L-glutamyl-L-valyl-L-aspartic acid amide], a non-fluorescent bisamide), which, via a two step process, first yields the monoamide product (weakly fluorescent) and then the fluorescent product R110 (rhodamine 110, strongly fluorescent). Detection was performed on a Fluoroskan Ascent FL fluorescent plate reader (Thermo Lab Systems, Helsinki, Finland) according to the manufacturer's guidelines.

With C#CCC(Cc1cnc2nc(N)nc(N)c2n1)c1ccc(C(=O)N[C@@H](CCC(=O)O)C(=O)O)cc1 (stereo partly drawn) [PDX, 10-Propargyl-10-deazaminopterin] the fraction of control [1] was 0.84, the IC50 [2] was 2 ± 0.4 nM and the IC50 [3] was 2 ± 0.3 nM. The IC50 [4] was 1.6 ± 0.8 nM, the IC50 [5] was 23 ± 2 nM and the “% change in apoptosis” value (SKI-DLCL-1 cells) was 28.21%. The “tumor volume as % of initial tumor volume” value [6] was 739%, the “maximum tolerated dose (MTD)” value ([7]; intraperitoneal, twice weekly for two weeks) was 60 mg/kg and the “toxic deaths at the MTD” value ([7]; nude mice) was “no toxic deaths”. For the same compound, the “apoptotic cells in tumor tissue (TUNEL)” value (SKI-DLBCL-1 xenografts) was “high level of apoptotic cells”, the “Fluorescence at 485ex/527em” value ([8]; 1 nM, control 134.3) was 265.5 and the Difference from control ([8]; fluorescence at 485ex/527em) was 131.2.
